Measured values taken from publication PMC4389225, “Triaminopyrimidine is a fast-killing and long-acting antimalarial clinical candidate” (Nature Communications, 2015).
Like-named read-outs stand apart in the source and are kept apart here.

Columns and labels:
[1] = Rat blood PK, IV and oral; type: in vivo; settings: for Vd / half-life / clearance / MRT / bioavailability / AUC(0-inf) / AUC(0-t) / Cmax: rat; for bioavailability / AUC(0-inf) / AUC(0-t) / Cmax: 10 mg/kg
Procedure: Blood samples were collected at 0.083, 0.25, 0.5, 1, 2, 4, 8, 23, 32, 48, 55 and 72 hours after an IV dose of 2 mg/kg or an oral dose of 10 mg/kg. Oral administration was done using oral gavage at a maximum dose volume of 10 mL/kg. Solution formulation containing 10% NMP, 20% DMA in dextrose / normal saline was used for IV administration and a suspension in 0.5% w/v HPMC with 0.1% v/v Tween 80 was used for oral administration. 25 µl of blood samples were mixed with 100 µL of Milli-Q water and vortexed for 5 minutes in the plate shaker at a speed of 900 rpm to ensure complete hemolysis. Proteins were precipitated by adding 125 µL of cold acetonotrile containing internal standard. After extraction on a plate shaker for 10 minutes at 900 rpm, the plate was centrifuged at 4000 rpm for 20 minutes. The supernatant (180 µL) was transferred to another plate and 2.5 µL of Zinc sulphate (200 mM) was added to separate the heme fraction. This mixture was centrifuged and 10 µL of the supernatant was analyzed by LC-MS/MS. […]

Pf 3D7A = test: in vitro parasite reduction ratio (PRR) assay; settings: after 48 h of exposure, 10 times IC50
[2] = Wistar, whole blood, po, Oral 10 mg kg-1, Mean
[3] = Wistar, whole blood, po, Oral 10 mg kg-1, Rat 1
[4] = Wistar, whole blood, po, Oral 10 mg kg-1, Rat 2
[5] = Wistar, whole blood, po, Oral 10 mg kg-1, Rat 3

With `Cc1nc(Nc2ncc(N3CCN(C)[C@H](C)C3)c(Nc3cc(C)n(C)n3)n2)cc(C2CC2)c1F` [compound 12, (R)-N2-(4-cyclopropyl-5-fluoro-6-methylpyridin-2-yl)-N4-(1,5-dimethyl-1H-pyrazol-3-yl)-5-(3,4-dimethylpiperazin-1-yl)pyrimidine-2,4-diamine] the Vd ([1]; Wistar (rat), Beagle (dog), whole blood (rat), plasma (dog), intravenous, 2 mg/kg, rat and dog, read-out: volume of distribution (Vss)) was 10 to 20 L/kg, the half-life ([1]; Wistar (rat), Beagle (dog), whole blood (rat), plasma (dog), iv, 2 mg/kg, intravenous PK, rat and dog, read-out: half-life) was 11 to 13 h and the half-life ([1]; Wistar (rat), Beagle (dog), whole blood (rat), plasma (dog), po, oral PK study, rat and dog, read-out: half-life) was 14 to 16 h. It also gave a clearance ([1]; Wistar, blood, iv, 2 mg/kg, Rat, read-out: Observed blood CL) of 5 to 13 mL/min/kg, an MRT ([1]; Wistar, whole blood, iv, 2 mg/kg, IV 2 mg kg-1, Mean) of 15.7 h and a clearance ([1]; Wistar, whole blood, iv, 2 mg/kg, IV 2 mg kg-1, Mean, read-out: CL) of 9.2 mL/min/kg. For the same compound, the Vd ([1]; Wistar, whole blood, iv, 2 mg/kg, IV 2 mg kg-1, Mean, read-out: Vss) was 7.7 L/kg, the half-life ([1]; Wistar, whole blood, iv, 2 mg/kg, IV 2 mg kg-1, Mean, read-out: t½ (converted)) was 15.2 h and the MRT ([1]; Wistar, whole blood, iv, 2 mg/kg, IV 2 mg kg-1, Rat 1) was 11.8 h. The clearance ([1]; Wistar, whole blood, iv, 2 mg/kg, IV 2 mg kg-1, Rat 1, read-out: CL) was 13.1 mL/min/kg, the Vd ([1]; Wistar, whole blood, iv, 2 mg/kg, IV 2 mg kg-1, Rat 1, read-out: Vss) was 9.3 L/kg and the half-life ([1]; Wistar, whole blood, iv, 2 mg/kg, IV 2 mg kg-1, Rat 1, read-out: t½ (converted)) was 13.5 h. The MRT ([1]; Wistar, whole blood, iv, 2 mg/kg, IV 2 mg kg-1, Rat 2) was 22.6 h, the clearance ([1]; Wistar, whole blood, iv, 2 mg/kg, IV 2 mg kg-1, Rat 2, read-out: CL) was 4.8 mL/min/kg and the Vd ([1]; Wistar, whole blood, iv, 2 mg/kg, IV 2 mg kg-1, Rat 2, read-out: Vss) was 6.6 L/kg. It also gave a half-life ([1]; Wistar, whole blood, iv, 2 mg/kg, IV 2 mg kg-1, Rat 2, read-out: t½ (converted)) of 19.2 h, an MRT ([1]; Wistar, whole blood, iv, 2 mg/kg, IV 2 mg kg-1, Rat 3) of 12.6 h and a clearance ([1]; Wistar, whole blood, iv, 2 mg/kg, IV 2 mg kg-1, Rat 3, read-out: CL) of 9.6 mL/min/kg. It also gave a Vd ([1]; Wistar, whole blood, iv, 2 mg/kg, IV 2 mg kg-1, Rat 3, read-out: Vss) of 7.2 L/kg, a half-life ([1]; Wistar, whole blood, iv, 2 mg/kg, IV 2 mg kg-1, Rat 3, read-out: t½ (converted)) of 13 h and a bioavailability ([1]; Wistar, whole blood, oral, read-out: Rat F (bioavailability)) of 80%. The AUC(0-inf) [1, 2] was 35.8 µM·h, the AUC(0-t) [1, 2] was 34.7 µM·h and the Cmax [1, 2] was 2000 nM. For the same compound, the bioavailability ([1]; Wistar, whole blood, po, Oral 10 mg kg-1, Mean, read-out: F) was 90%, the AUC(0-inf) [1, 3] was 33.1 µM·h and the AUC(0-t) [1, 3] was 31.8 µM·h. It also gave a Cmax [1, 3] of 1710 nM, a bioavailability ([1]; Wistar, whole blood, po, Oral 10 mg kg-1, Rat 1, read-out: F) of 121% and an AUC(0-inf) [1, 4] of 38.4 µM·h. It also gave an AUC(0-t) [1, 4] of 37.2 µM·h, a Cmax [1, 4] of 2210 nM and a bioavailability ([1]; Wistar, whole blood, po, Oral 10 mg kg-1, Rat 2, read-out: F) of 52%. For the same compound, the AUC(0-inf) [1, 5] was 36 µM·h, the AUC(0-t) [1, 5] was 35.1 µM·h and the Cmax [1, 5] was 1990 nM. The bioavailability ([1]; Wistar, whole blood, po, Oral 10 mg kg-1, Rat 3, read-out: F) was 96%, the Tmax ([1]; Wistar, whole blood, Oral 10 mg kg-1, Rat 1) was 4 h and the CL ([1]; rat and dog) was < 35 % liver blood flow. The “log kill in PRR assay” value (Pf 3D7A) was > 4 log.
